Test results reported in the supplement of paper PMC10627819.

Legend:
S. aureus DSM 20231 [1] = assay: fitness (endpoint OD595 vs no drug) (fraction); higher = more growth
In short: (§1)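 Fitness was measured as bacterial growth in 384-well plates inoculated at OD595 0.01 (30 µl, or 55 µl for S. pneumoniae). Media were TSB, LB Lennox or CY, at 37 °C. OD595 was read every 30 min for 14 h and background-subtracted against the first reading. Fitness is OD595 at the transition into stationary phase divided by the robust mean of no-drug control wells, capped at 1.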

S. aureus Newman [2] = assay: as above
In short: as §1

S. aureus DSM 20231 [3] = assay: Bliss interaction score (quartile over a dose matrix) (fitness difference); higher = more antagonism (negative = synergy)
In short: (§2)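 The Bliss score was calculated by subtracting the expected fitness, the product of single-drug values, from the observed fitness. OD595 at entry into stationary phase, over the plate's robust no-drug mean and capped at 1, served as the fitness readout. Single-drug values were inferred from combination data, and scores are summarised by quartiles across technical, biological and donor/recipient replicates.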

B. subtilis 168 = assay: as above
In short: as §2

S. aureus Newman [4] = assay: as above
In short: as §2

S. pneumoniae D39V = assay: as above
In short: as §2

[5] = first compound 0.75 µg/mL, partner 0.0625 µg/mL
[6] = first compound 0.75 µg/mL, partner 0.125 µg/mL
[7] = first compound 0.75 µg/mL, partner 0.25 µg/mL
[8] = first compound 0.75 µg/mL, partner 0.5 µg/mL, one replicate
[9] = first compound 0.75 µg/mL, partner 1 µg/mL, one replicate
[10] = first compound 1.5 µg/mL, partner 0.0625 µg/mL
[11] = first compound 1.5 µg/mL, partner 0.125 µg/mL
[12] = first compound 1.5 µg/mL, partner 0.25 µg/mL
[13] = first compound 1.5 µg/mL, partner 0.5 µg/mL, one replicate
[14] = first compound 1.5 µg/mL, partner 1 µg/mL, one replicate
[15] = first compound 3 µg/mL, partner 0.0625 µg/mL
[16] = first compound 3 µg/mL, partner 0.25 µg/mL
[17] = first compound 3 µg/mL, partner 1 µg/mL, one replicate
[18] = first compound 3 µg/mL, partner 0.125 µg/mL
[19] = first compound 0.75 µg/mL, partner 0.1875 µg/mL
[20] = first compound 0.75 µg/mL, partner 0.375 µg/mL
[21] = first compound 1.5 µg/mL, partner 0.375 µg/mL
[22] = first compound 1.5 µg/mL, partner 0.75 µg/mL
[23] = first compound 3 µg/mL, partner 0.75 µg/mL
[24] = first compound 0.75 µg/mL, partner 1 µg/mL
[25] = first compound 0.75 µg/mL, partner 2 µg/mL
[26] = first compound 0.75 µg/mL, partner 4 µg/mL
[27] = first compound 1.5 µg/mL, partner 1 µg/mL
[28] = first compound 1.5 µg/mL, partner 2 µg/mL
[29] = first compound 1.5 µg/mL, partner 4 µg/mL
[30] = first compound 3 µg/mL, partner 1 µg/mL
[31] = first compound 3 µg/mL, partner 2 µg/mL
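Throughout, for Bliss interaction score (quartile over a dose matrix): first quartile when negative (synergy) and third quartile when positive (antagonism).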

Compound `O=C(N[C@H](CO)[C@H](O)c1ccc([N+](=O)[O-])cc1)C(Cl)Cl` [Chloramphenicol] + CC1=C\[C@@H](O)CC(=O)Cc2nc(co2)C(=O)N2CCC=C2C(=O)O[C@H](C(C)C)[C@H](C)/C=C/C(=O)NC\C=C\1 [Virginiamycin M1] has a fitness (S. aureus DSM 20231 [1]; [5]) of 0.735, a fitness (S. aureus DSM 20231 [1]; [6]) of 0.649 and a fitness (S. aureus DSM 20231 [1]; [7]) of 0.789. The fitness (S. aureus DSM 20231 [1]; [8]) was 0.884, the fitness (S. aureus DSM 20231 [1]; [9]) was 0.811 and the fitness (S. aureus DSM 20231 [1]; [10]) was 0.555. It also gave a fitness (S. aureus DSM 20231 [1]; [11]) of 0.569, a fitness (S. aureus DSM 20231 [1]; [12]) of 0.609 and a fitness (S. aureus DSM 20231 [1]; [13]) of 0.601. The fitness (S. aureus DSM 20231 [1]; [14]) was 0.535, the fitness (S. aureus DSM 20231 [1]; [15]) was 0.084 and the fitness (S. aureus DSM 20231 [1]; [16]) was 0.12. The fitness (S. aureus DSM 20231 [1]; [17]) was 0.149, the fitness (S. aureus Newman [2]; [5]) was 0.77 and the fitness (S. aureus Newman [2]; [6]) was 0.777. For the same compound, the fitness (S. aureus Newman [2]; [7]) was 0.792, the fitness (S. aureus Newman [2]; [8]) was 0.827 and the fitness (S. aureus Newman [2]; [9]) was ≥ 1. The fitness (S. aureus Newman [2]; first compound 0.75 µg/mL, partner 2 µg/mL, one replicate) was 0.815, the fitness (S. aureus Newman [2]; [10]) was 0.467 and the fitness (S. aureus Newman [2]; [11]) was 0.474. The fitness (S. aureus Newman [2]; [12]) was 0.488, the fitness (S. aureus Newman [2]; [13]) was 0.609 and the fitness (S. aureus Newman [2]; [14]) was 0.692. For the same compound, the fitness (S. aureus Newman [2]; first compound 1.5 µg/mL, partner 2 µg/mL, one replicate) was 0.683, the fitness (S. aureus Newman [2]; [15]) was 0.144 and the fitness (S. aureus Newman [2]; [18]) was 0.151. The fitness (S. aureus Newman [2]; [16]) was 0.179, the fitness (S. aureus Newman [2]; first compound 3 µg/mL, partner 0.5 µg/mL, one replicate) was 0.286 and the fitness (S. aureus Newman [2]; [17]) was 0.26. It also gave a fitness (S. aureus Newman [2]; first compound 3 µg/mL, partner 2 µg/mL, one replicate) of 0.153, a Bliss interaction score (S. aureus DSM 20231 [3]) of -0.0544 and a Bliss interaction score (B. subtilis 168) of 0.0462. The Bliss interaction score (S. aureus Newman [4]) was -0.0589 and the Bliss interaction score (S. pneumoniae D39V) was 0.0662.
In the case of `O=C(N[C@H](CO)[C@H](O)c1ccc([N+](=O)[O-])cc1)C(Cl)Cl` [Chloramphenicol] + CN[C@H](CC(C)C)C(=O)N[C@H]1C(=O)N[C@@H](CC(N)=O)C(=O)N[C@H]2C(=O)N[C@H]3C(=O)N[C@H](C(=O)N[C@H](C(=O)O)c4cc(O)cc(O)c4-c4cc3ccc4O)[C@H](O)c3ccc(c(Cl)c3)Oc3cc2cc(c3O[C@@H]2O[C@H](CO)[C@@H](O)[C@H](O)[C@H]2O[C@H]2C[C@](C)(N)[C@H](O)[C@H](C)O2)Oc2ccc(cc2Cl)[C@H]1O [Vancomycin], the fitness (S. aureus DSM 20231 [1]; [19]) is reported as 0.669, the fitness (S. aureus DSM 20231 [1]; [20]) is reported as 0.7 and the fitness (S. aureus DSM 20231 [1]; first compound 1.5 µg/mL, partner 0.1875 µg/mL) is reported as 0.608. It also gave a fitness (S. aureus DSM 20231 [1]; [21]) of 0.654, a fitness (S. aureus DSM 20231 [1]; [22]) of 0.652 and a fitness (S. aureus DSM 20231 [1]; first compound 3 µg/mL, partner 0.1875 µg/mL) of 0.165. For the same compound, the fitness (S. aureus DSM 20231 [1]; first compound 3 µg/mL, partner 0.375 µg/mL) was 0.142, the fitness (S. aureus DSM 20231 [1]; [23]) was 0.15 and the fitness (S. aureus Newman [2]; [19]) was 0.874. The fitness (S. aureus Newman [2]; [20]) was 0.877, the fitness (S. aureus Newman [2]; first compound 0.75 µg/mL, partner 0.75 µg/mL) was 0.836 and the fitness (S. aureus Newman [2]; [21]) was 0.607. The fitness (S. aureus Newman [2]; [22]) was 0.634, the fitness (S. aureus Newman [2]; [23]) was 0.23 and the Bliss interaction score (S. aureus DSM 20231 [3]) was 0.07. It also gave a Bliss interaction score (B. subtilis 168) of -0.0535, a Bliss interaction score (S. aureus Newman [4]) of 0.079 and a Bliss interaction score (S. pneumoniae D39V) of -0.0896.
For `O=C(N[C@H](CO)[C@H](O)c1ccc([N+](=O)[O-])cc1)C(Cl)Cl` [Chloramphenicol] + Cn1nnc(-c2ccc(-c3ccc(N4C[C@H](CO)OC4=O)cc3F)cn2)n1 [Tedizolid], the fitness (S. aureus DSM 20231 [1]; [5]) was 0.584, the fitness (S. aureus DSM 20231 [1]; [6]) was 0.538 and the fitness (S. aureus DSM 20231 [1]; [7]) was 0.189. For the same compound, the fitness (S. aureus DSM 20231 [1]; [10]) was 0.412, the fitness (S. aureus DSM 20231 [1]; [11]) was 0.285 and the fitness (S. aureus DSM 20231 [1]; [12]) was 0.168. It also gave a fitness (S. aureus DSM 20231 [1]; [15]) of 0.0827, a fitness (S. aureus DSM 20231 [1]; [18]) of 0.07 and a fitness (S. aureus DSM 20231 [1]; [16]) of 0.0466. It also gave a fitness (S. aureus Newman [2]; [18]) of 0.095, a fitness (S. aureus Newman [2]; [16]) of 0.0603 and a Bliss interaction score (S. aureus DSM 20231 [3]) of -0.157. The Bliss interaction score (B. subtilis 168) was -0.101, the Bliss interaction score (S. aureus Newman [4]) was -0.179 and the Bliss interaction score (S. pneumoniae D39V) was -0.068.
`O=C(N[C@H](CO)[C@H](O)c1ccc([N+](=O)[O-])cc1)C(Cl)Cl` [Chloramphenicol] + Cc1cc(NS(=O)(=O)c2ccc(N)cc2)no1 [Sulfamethoxazol] was tested, and the fitness (S. aureus DSM 20231 [1]; [24]) was 0.614, the fitness (S. aureus DSM 20231 [1]; [25]) was 0.652 and the fitness (S. aureus DSM 20231 [1]; [26]) was 0.709. For the same compound, the fitness (S. aureus DSM 20231 [1]; [27]) was 0.541, the fitness (S. aureus DSM 20231 [1]; [28]) was 0.526 and the fitness (S. aureus DSM 20231 [1]; [29]) was 0.49. It also gave a fitness (S. aureus DSM 20231 [1]; [30]) of 0.115, a fitness (S. aureus DSM 20231 [1]; [31]) of 0.102 and a fitness (S. aureus Newman [2]; [24]) of 0.837. For the same compound, the fitness (S. aureus Newman [2]; [25]) was 0.899, the fitness (S. aureus Newman [2]; [26]) was 0.909 and the fitness (S. aureus Newman [2]; first compound 0.75 µg/mL, partner 8 µg/mL, one replicate) was 0.889. For the same compound, the fitness (S. aureus Newman [2]; [27]) was 0.583, the fitness (S. aureus Newman [2]; [28]) was 0.652 and the fitness (S. aureus Newman [2]; [29]) was 0.647. It also gave a fitness (S. aureus Newman [2]; first compound 1.5 µg/mL, partner 8 µg/mL, one replicate) of 0.694, a fitness (S. aureus Newman [2]; [30]) of 0.199 and a fitness (S. aureus Newman [2]; [31]) of 0.172. The fitness (S. aureus Newman [2]; first compound 3 µg/mL, partner 4 µg/mL) was 0.179, the fitness (S. aureus Newman [2]; first compound 3 µg/mL, partner 8 µg/mL, one replicate) was 0.35 and the Bliss interaction score (S. aureus DSM 20231 [3]) was -0.0341. For the same compound, the Bliss interaction score (B. subtilis 168) was 0.0483, the Bliss interaction score (S. aureus Newman [4]) was 0.0702 and the Bliss interaction score (S. pneumoniae D39V) was -0.0682.
